≈ marks a conversion by molar mass, not a printed value. One block for each molecule: values may come before it.
How the values were obtained:
[1] = target: T1, Tyrosine-protein phosphatase non-receptor type 11 (Homo sapiens, UniProt Q06124); test: Allosteric inhibition of IRS1 peptide-activated human recombinant SHP2 (Met1 to Leu525) expressed in Escherichia coli assessed as inhibition of dephosphorylation of 6,8-difluoro-4-methylumbelliferyl phosphate using DiFMUP as substrate preincubated with enzyme for 30 mins followed by substrate addition and measured after 30 mins by DiFMUP assay
T1 sequence (Q06124 whole entry): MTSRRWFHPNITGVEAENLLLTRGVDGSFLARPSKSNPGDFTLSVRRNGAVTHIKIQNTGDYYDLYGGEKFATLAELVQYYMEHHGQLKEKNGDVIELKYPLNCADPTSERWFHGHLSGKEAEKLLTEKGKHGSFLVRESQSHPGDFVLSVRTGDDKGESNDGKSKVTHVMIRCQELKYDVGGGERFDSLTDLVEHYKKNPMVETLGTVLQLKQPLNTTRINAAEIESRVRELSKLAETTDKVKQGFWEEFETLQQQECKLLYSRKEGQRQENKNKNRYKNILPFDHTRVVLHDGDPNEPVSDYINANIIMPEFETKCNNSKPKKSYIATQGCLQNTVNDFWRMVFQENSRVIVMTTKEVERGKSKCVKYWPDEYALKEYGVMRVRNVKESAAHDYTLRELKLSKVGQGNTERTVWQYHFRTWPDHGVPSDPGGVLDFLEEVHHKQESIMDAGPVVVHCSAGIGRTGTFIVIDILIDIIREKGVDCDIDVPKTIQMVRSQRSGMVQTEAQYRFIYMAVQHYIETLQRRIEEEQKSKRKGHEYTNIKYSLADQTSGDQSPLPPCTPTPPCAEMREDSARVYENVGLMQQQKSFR

[2] = target: T1, Tyrosine-protein phosphatase non-receptor type 11; test: Allosteric inhibition of SHP2 in human KYSE-520 cells assessed as inhibition of ERK phosphorylation incubated for 2 hrs by TR-FRET assay; type: cell-based, KYSE-520 cell line
KYSE-520 cell line = test: Antiproliferative activity against EGFR-amplified human KYSE-520 cells assessed as inhibition of cell proliferation incubated for 72 hrs by CellTiter-Glo reagent based luminescence assay; type: functional; conditions: KYSE-520, 72 h
[3] = target: Voltage-gated inwardly rectifying potassium channel KCNH2 (Homo sapiens, UniProt Q12809); test: Displacement of E-4031 from hERG by fluorescence polarization assay; type: toxicity
Chain of Voltage-gated inwardly rectifying potassium channel KCNH2 (Q12809 whole entry): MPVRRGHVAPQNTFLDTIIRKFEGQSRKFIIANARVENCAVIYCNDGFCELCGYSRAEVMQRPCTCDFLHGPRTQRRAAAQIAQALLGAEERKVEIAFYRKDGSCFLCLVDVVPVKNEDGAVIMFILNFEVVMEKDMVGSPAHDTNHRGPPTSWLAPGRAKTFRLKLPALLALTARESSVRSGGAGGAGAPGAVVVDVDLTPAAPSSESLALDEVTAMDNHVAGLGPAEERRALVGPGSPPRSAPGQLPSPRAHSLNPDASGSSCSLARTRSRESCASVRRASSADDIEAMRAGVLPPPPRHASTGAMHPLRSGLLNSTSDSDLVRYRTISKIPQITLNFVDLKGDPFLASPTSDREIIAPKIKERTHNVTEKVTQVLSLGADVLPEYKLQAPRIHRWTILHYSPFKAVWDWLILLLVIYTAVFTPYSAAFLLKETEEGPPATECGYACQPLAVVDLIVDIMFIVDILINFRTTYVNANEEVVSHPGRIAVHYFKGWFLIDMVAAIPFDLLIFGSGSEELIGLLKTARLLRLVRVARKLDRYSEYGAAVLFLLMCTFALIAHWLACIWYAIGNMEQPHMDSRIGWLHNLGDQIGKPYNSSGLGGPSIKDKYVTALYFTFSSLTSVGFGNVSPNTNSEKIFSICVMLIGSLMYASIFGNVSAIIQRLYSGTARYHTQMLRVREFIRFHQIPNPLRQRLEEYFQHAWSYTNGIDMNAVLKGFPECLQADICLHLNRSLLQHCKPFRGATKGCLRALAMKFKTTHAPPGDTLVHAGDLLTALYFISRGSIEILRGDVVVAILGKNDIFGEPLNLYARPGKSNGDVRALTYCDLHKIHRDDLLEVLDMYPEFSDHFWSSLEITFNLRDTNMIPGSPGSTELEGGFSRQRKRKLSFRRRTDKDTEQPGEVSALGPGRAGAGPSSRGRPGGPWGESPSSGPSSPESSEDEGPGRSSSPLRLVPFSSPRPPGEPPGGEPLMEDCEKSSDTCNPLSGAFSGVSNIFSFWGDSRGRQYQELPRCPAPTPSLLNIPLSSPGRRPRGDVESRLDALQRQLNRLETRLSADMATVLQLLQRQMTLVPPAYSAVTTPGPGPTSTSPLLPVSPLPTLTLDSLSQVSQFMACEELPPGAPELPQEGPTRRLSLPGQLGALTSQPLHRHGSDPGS

[4] = Apparent passive permeability of the compound in phosphate buffer saline at pH 7.4 at 5 uM incubated for 4 hrs by PAMPA assay; type: ADME
[5] = Half life in Sprague-Dawley rat at 0.5 mg/kg, iv measured for 24 hrs by LC-MS/MS analysis; type: ADME, organism-based; conditions: in vivo
[6] = Intrinsic clearance in Sprague-Dawley rat at 0.5 mg/kg, iv measured for 24 hrs by LC-MS/MS analysis; type: ADME, organism-based; conditions: in vivo
[7] = Volume of distribution at steady state in Sprague-Dawley rat at 0.5 mg/kg, iv measured for 24 hrs by LC-MS/MS analysis; type: ADME, organism-based; conditions: in vivo, read-out: Vdss
[8] = Intrinsic clearance in BALB/c mouse at 1 mg/kg, iv measured for 24 hrs by LC-MS/MS analysis; type: ADME, organism-based; conditions: in vivo
[9] = Volume of distribution at steady state in BALB/c mouse at 1 mg/kg, iv measured for 24 hrs by LC-MS/MS analysis; type: ADME, organism-based; conditions: in vivo, read-out: Vdss
[10] = Half life in BALB/c mouse at 1 mg/kg, iv measured for 24 hrs by LC-MS/MS analysis; type: ADME, organism-based; conditions: in vivo
[11] = Oral bioavailability in BALB/c mouse at 50 mg/kg measured for 24 hrs by LC-MS/MS analysis; type: ADME, organism-based; conditions: in vivo
[12] = target: T1, Tyrosine-protein phosphatase non-receptor type 11; test: Binding affinity to N-terminal biotinylated AviTag-G4SG4S-tagged recombinant SHP2 (1 to 525 residues) (unknown origin) by SPR analysis
[13] = Kinetic solubility of the compound in phosphate buffer saline at pH 7.4 at 200 uM by LC-UV analysis; type: physicochemical; conditions: read-out: Kinetic_solubility
[14] = Intrinsic clearance in human liver microsomes at 1 uM measured for 60 mins in presence of NADPH by LC-MS/MS analysis; type: ADME, Microsome; conditions: read-out: CLH
[15] = Intrinsic clearance in C57BL/6 mouse liver microsomes at 1 uM measured for 60 mins in presence of NADPH by LC-MS/MS analysis; type: ADME, Microsome; conditions: read-out: CLH
[16] = Drug metabolism in human liver microsomes assessed as oxidised metabolite formation at 1 uM measured after 60 mins in presence of NADPH by MetID study analysis; type: ADME, Microsome; conditions: 1 h
[17] = Drug metabolism in human liver microsomes assessed as 1'-(6-((2-(trifluoromethyl)pyridin-3-yl)sulfonyl)-1H-imidazo[4,5-b]pyrazin-2-yl)-1,3-dihydrospiro[indene-2,4'-piperidin]-1-amine formation at 1 uM measured after 60 mins in presence of NADPH by MetID study analysis; type: ADME, Microsome
[18] = Drug metabolism in C57BL/6 mouse liver microsomes assessed as oxidised metabolite formation at 1 uM measured after 60 mins in presence of NADPH by MetID study analysis; type: ADME, Microsome; conditions: 1 h
[19] = Drug metabolism in C57BL/6 mouse liver microsomes assessed as 1'-(6-((2-(trifluoromethyl)pyridin-3-yl)sulfonyl)-1H-imidazo[4,5-b]pyrazin-2-yl)-1,3-dihydrospiro[indene-2,4'-piperidin]-1-amine formation at 1 uM measured after 60 mins in presence of NADPH by MetID study analysis; type: ADME, Microsome

Structure (SMILES): CC1(N)CCN(c2nc3ccc(Sc4cccnc4C(F)(F)F)cc3[nH]2)CC1
IC50 [1]: > 16000 nM

Structure (SMILES): CC1(N)CCN(c2nc3ncc(Sc4cccc(Cl)c4Cl)nc3[nH]2)CC1
IC50 [1]: 47 nM

Structure (SMILES): Nc1nccc(Sc2cnc3[nH]c(N4CCC5(CC4)Cc4ccccc4[C@H]5N)nc3n2)c1Cl
IC50 [1]: 4 nM | EC50 [2]: 75 nM | EC50 (KYSE-520 cell line): 598 nM | IC50 [3]: 900 nM

Structure (SMILES): N[C@@H]1c2ccccc2CC12CCN(c1nc3nc(Sc4ccncc4Cl)cnc3[nH]1)CC2
IC50 [1]: 3 nM | EC50 [2]: 51 nM | EC50 (KYSE-520 cell line): 325 nM | IC50 [3]: 3100 nM

Structure (SMILES): CC1(N)CCN(c2nc3ncc(Oc4cccc(Cl)c4Cl)nc3[nH]2)CC1
IC50 [1]: 521 nM

Structure (SMILES): CC1(N)CCN(c2cnc(Sc3cccnc3C(F)(F)F)c(N)n2)CC1
IC50 [1]: 142 nM

Structure (SMILES): CNc1nccc(Sc2cnc3[nH]c(N4CCC5(CC4)Cc4ccccc4[C@H]5N)nc3n2)c1Cl
IC50 [1]: 6 nM | EC50 [2]: 37 nM | EC50 (KYSE-520 cell line): 520 nM | Papp at 4 h, 5 µM [4]: 0.02 ×10⁻⁶ cm/s | half-life [5]: > 2.3 h | CL [6]: 17 mL/min/kg | Vd [7]: 1.9 L/kg | CL [8]: 14 mL/min/kg | Vd [9]: 1.8 L/kg | half-life [10]: > 4 h | bioavailability [11]: 7% | IC50 [3]: 4200 nM

Structure (SMILES): Cc1nc2nc(N3CCC(C)(N)CC3)[nH]c2nc1Sc1cccc(Cl)c1Cl
IC50 [1]: 436 nM

Structure (SMILES): CC1(N)CCN(c2nc3ncc(-c4cccc(Cl)c4Cl)nc3[nH]2)CC1
IC50 [1]: 797 nM

Structure (SMILES): N[C@@H]1c2ccccc2CC12CCN(c1nc3nc(Sc4cccnc4C(F)(F)F)cnc3[nH]1)CC2
IC50 [1]: 5 nM | EC50 [2]: 42 nM | EC50 (KYSE-520 cell line): 547 nM | Kd [12]: 0.6 nM | solubility kinetic at 200 µM [13]: 154 µM (≈ 76.6 µg/mL) | CLint scaled at 1 µM [14]: 74 mL/min/kg | CLint scaled at 1 µM [15]: 297 mL/min/kg | Papp at 4 h, 5 µM [4]: 0.027 ×10⁻⁶ cm/s | Drug metabolism [16]: Metabolite_Detected | Drug metabolism [17]: Metabolite_Detected | Drug metabolism [18]: Metabolite_Detected | Drug metabolism [19]: Metabolite_Detected | half-life [5]: 0.4 h | CL [6]: 24 mL/min/kg | Vd [7]: 0.4 L/kg | IC50 [3]: 1800 nM

Now from value to molecule:

IC50 [1]: > 64000 nM
Structure (SMILES): CC1(N)CCN(c2nc3ncc(Sc4cccnc4C(F)(F)F)nc3s2)CC1

IC50 [1]: 887 nM
Structure (SMILES): CC1(N)CCN(c2nc3nc(Sc4cccnc4C(F)(F)F)cnc3s2)CC1

IC50 [1]: 64 nM | EC50 [2]: 2850 nM
Structure (SMILES): C[C@@H]1OCC2(CCN(c3nc4nc(Sc5cccnc5C(F)(F)F)cnc4[nH]3)CC2)[C@@H]1N

IC50 [1]: 74 nM | EC50 [2]: 1760 nM
Structure (SMILES): CC1(N)CCN(c2nc3ncc(Sc4cccnc4C(F)(F)F)nc3[nH]2)CC1

IC50 [1]: 290 nM
Structure (SMILES): N[C@@H]1CCCC12CCN(c1nc3nc(Sc4cccnc4C(F)(F)F)cnc3[nH]1)CC2

IC50 [1]: 435 nM
Structure (SMILES): NC1CCCN(c2nc3nc(Sc4cccnc4C(F)(F)F)cnc3[nH]2)C1 (stereo unspecified)

IC50 [1]: 1180 nM
Structure (SMILES): CNC1CCN(c2nc3nc(Sc4cccnc4C(F)(F)F)cnc3[nH]2)CC1

IC50 [1]: > 33000 nM
Structure (SMILES): CC1(N)CCN(c2nc3ncc(Sc4cccnc4C(F)(F)F)cc3[nH]2)CC1

IC50 [1]: 808 nM
Structure (SMILES): CC1(N)CCN(c2nc3cnc(Sc4cccnc4C(F)(F)F)nc3[nH]2)CC1

IC50 [1]: 409 nM
Structure (SMILES): Cn1c(N2CCC(C)(N)CC2)nc2nc(Sc3cccnc3C(F)(F)F)cnc21

IC50 [1]: 1360 nM
Structure (SMILES): Cn1c(N2CCC(C)(N)CC2)nc2ncc(Sc3cccnc3C(F)(F)F)nc21

IC50 [1]: 664 nM
Structure (SMILES): NC1CCN(c2nc3nc(Sc4cccnc4C(F)(F)F)cnc3[nH]2)CC1
